Measured values from patent US9119857B2, “Small molecule activators of HsIV protease for development of novel antimicrobials” (priority 2013, dated 2015).

Biological target: T1, E. coli HslV peptidase (Escherichia coli, UniProt P0A7B8)
T1 construct: His tag (inferred from Ni-chelating purification and the pET20B+ vector); made in house; host or cells: E. coli BL21 (DE3), pET20B+ vector
Test: biochemical
Details: recombinant E. coli HslV; substrate Z-Gly-Gly-Leu-AMC; in the absence of HslU; ED50 = concentration giving half maximal reaction velocity, from Vi/Vo plots; read-out: E. coli HslV activation (ED50 in μM)
Method: ED50 values were calculated from the plots of Vi/Vo versus compound concentration in which Vi and Vo were the velocities in the presence and absence of the compound^20.
The HslV activation assays were carried out with recombinant E. coli HslV and HslU. Recombinant HslV and HslU were expressed in E. coli BL21 (DE3) cells containing pET20B+ vector. Purification of both proteins was carried out using Ni-chelating and ion-exchange chromatography as reported elsewhere^4.
Plots of HslV peptidase activity as a function of compound concentrations were constructed (FIG. 4).

T1 sequence (P0A7B8 2-176): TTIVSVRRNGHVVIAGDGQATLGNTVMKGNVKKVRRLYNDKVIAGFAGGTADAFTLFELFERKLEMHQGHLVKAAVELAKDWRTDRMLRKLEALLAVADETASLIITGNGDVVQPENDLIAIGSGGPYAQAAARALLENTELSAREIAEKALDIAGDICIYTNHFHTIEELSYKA

Compound	EC50
O=C(N/N=C/c1cc(=O)c2ccccc2o1)c1ccccc1 [Compound 2, N″-[(1E)-(4-oxo-4H-chromen-2-yl)methylidene]benzohydrazide]	1.3 ± 0.4 µM
O=c1c2ccccc2nc(-c2ccc([N+](=O)[O-])cc2)n1/N=C/c1c(O)ccc2ccccc12 [Compound 1, 3-[(E)-[(2-hydroxynaphthalen-1-yl)methylidene]amino]-2-(4-nitrophenyl)-3,4-dihydroquinazolin-4-one]	0.9 ± 0.25 µM
